In PMC6389896 (Communications Biology, 2019):
“And” between values parts separate entries of the source, which are not always exact repeats. Identical values can stand only once.

What was measured:
[1] = Oxytocin in CSF of the third ventricle after subcutaneous injection; assay type: in vivo, mouse; conditions: 90 min after sc 30 ng, 0 min = 100, individual animals, listed as OT
Method: In separate experiments we cannulated the third ventricles of WT and Ager^−/− mice and withdrew CSF for oxytocin measurements.
The CSF samples (5 μl) were thawed and diluted 1:20 in assay buffer. CSF samples were assayed without protein extraction due to the low protein concentration in the CSF. […] The inter-assay and intra-assay coefficients of variation were less than 15%.

[2] = Microperfusion of the amygdala, oxytocin in microperfusates; assay type: in vivo, mouse; conditions: intranasal 20 ng, 0 min = 100, individual animals, listed as OT
From the text: For microperfusion probe implantation, the male mice were with a subcutaneous injections of ketamine. The heads of anesthetised mice were fixed in a stereotactic frame (Narishige, Tokyo, Japan) and a 1 mm hole was drilled in the skull. The intact dura intact was then punctured to create defined opening of the meninges. Using the stereotactic frame, a healing dummy was slowly inserted into the three brain positions. The probe was fixed to the skull by using two anchor screws and biocompatible dental cement. All surgical procedures were completed within 30 min. A healing dummy was used to provide mechanical stability during the implantation and the healing period of 2 weeks. The microperfusion probe (a 4-mm length of the coaxial tube, 2.5 mm in diameter) consisting of a 20 G fluorinated ethylene propylene guide cannula was replaced before sampling with an inflow/outflow tubing on the day of the experiments. This tubing was connected to two glass Hamilton microsyringes placed in syringe pumps (Eicom, Osaka, Japan). Microperfusate was pumped into the probe at a flow rate of 2 µl/min, and the samples were withdrawn at the same flow rate. Sampling was conducted for 2 h. Both microprobes were perfused without sampling for 60 min before the first 30-min microperfusates from the amygdala, PVN, and prefrontal cortex were collected. The microperfusates were mixed under sterile conditions and consisted of 154 mM NaCl, 2.2 mM CaCl2, 5.6 mM KCl, 2.3 mM NaHCO3, and 0.15% BSA (pH 7.4)[80]. Beginning immediately after the nasal application, 4 additional microperfusates were taken at 30-min intervals. After the termination of the experiments, the brains were removed and snap-frozen to obtain 40-μm cryo-cut stained brain slices later for the histological verification of the perfusion site.

## CC[C@H](C)[C@@H]1NC(=O)[C@H](Cc2ccc(O)cc2)NC(=O)[C@@H](N)CSSC[C@@H](C(=O)N2CCC[C@H]2C(=O)N[C@@H](CC(C)C)C(=O)NCC(N)=O)NC(=O)[C@H](CC(N)=O)NC(=O)[C@H](CCC(N)=O)NC1=O [oxytocin, Oxytocin]
[1]; Ager+/+ male mice
  OT % in CSF of the 3rd ventricle: 295% and 138% and 171% and 41% and 195% and 116% and 100% and 188% and 206%
[1]; Ager-/- male mice
  OT % in CSF of the 3rd ventricle: 137% and 73% and 77% and 133% and 80% and 118% and 115% and 103%
[2]; Ager-/- mice, 30 min
  OT % in microperfusates of the amygdala: 116% and 89% and 169% and 98% and 65% and 54% and 55% and 105% and 67% and 87% and 79%
[2]; Ager-/- mice, 60 min
  OT % in microperfusates of the amygdala: 66% and 55% and 85% and 123% and 83% and 92% and 78% and 84% and 76% and 112% and 77% and 93% and 79%
[2]; Ager-/- mice, 90 min
  OT % in microperfusates of the amygdala: 137% and 158% and 73% and 162% and 90% and 65% and 76% and 99% and 129% and 131% and 83% and 110% and 163%
[2]; WT mice, 30 min
  OT % in microperfusates of the amygdala: 211% and 198% and 89% and 141% and 104% and 174%
[2]; WT mice, 60 min
  OT % in microperfusates of the amygdala: 190% and 195% and 144% and 170% and 93% and 133%
[2]; WT mice, 90 min
  OT % in microperfusates of the amygdala: 204% and 156% and 78% and 216% and 359% and 124%
